Legend:
[1] = test system: stratum corneum of viable human skin; experiment: Desquamating activity: cohesion of the stratum corneum on excised human skin maintained under survival conditions; assay type: cell-based; conditions: for Score (mean ± sd, n = 6), decrease in the cohesion of the stratum corneum / Appearance of the stratum corneum compared with control skin: 5% by weight in ethanol; for Score (mean ± sd, n = 6), decrease in the cohesion of the stratum corneum: 15 μl per 1 cm^2, applied at D0 and D1, histology at D2, score 0 (absence of modification) to 4 (very large decrease with exfoliation), 6 donors; for Appearance of the stratum corneum compared with control skin: morphology comparison; for Decrease in the cohesion of the stratum corneum with respect to the control skin (desquamating effect): at 5%, paired Student test, p<0.05
Procedure: The study is targeted at detecting the desquamating potential of the active agents in simplex solution by observation of the cohesion of the stratum corneum.
The keratolytic effect on excised skin maintained under survival conditions at 5% by weight in ethanol was evaluated. The study was carried out on viable human skin resulting from abdominal or breast reduction plastic surgery (6 donors).
(§1) The protocol consists in applying the test solutions to skin samples maintained under survival conditions. The products tested are applied in a proportion of 15 μl per 1 cm^2 sample and are not rinsed off. Application is carried out twice, at D0 and then, 24 hours later, at D1. The morphology of the stratum corneum is analysed 48 hours after the first application, at D2, on a biopsy.
The solutions applied are the following: • compound A of Example 1, at 5% by weight in ethanol, and • compound B of Example 2, at 5% by weight in ethanol.
By way of comparison, no solution is applied to some samples, referred to as controls.
The histological analysis of the horny layer is carried out on a skin section after staining with hemalaun-eosin (magnification 400).
6 samples were used for each of the tests (control, compound A and compound B). A paired Student test (p<0.05) was carried out in order to evaluate the significance of the difference with respect to the control.

[2] = test system: epidermis of viable human skin; experiment: Tolerance of the skin: morphology of the epidermis of treated excised human skin; assay type: cell-based; conditions: 5% by weight in ethanol, compared with control skin
Procedure: as §1
In order to validate the desquamating properties of the compounds A and B and to evaluate the tolerance of the skin to these treatments, the morphology of a control skin was in addition compared with the morphology of the skin samples treated with A and with B present in a content of 5% by weight in ethanol, according to the protocol described above.

O=C(O)c1c(O)cccc1CCCCCCCCO [Compound A]
Score (mean ± sd, n = 6), decrease in the cohesion of the stratum corneum [1]: 1.85 ± 0.4 | Appearance of the stratum corneum compared with control skin [1]: decrease in the cohesion of the stratum corneum | Decrease in the cohesion of the stratum corneum with respect to the control skin (desquamating effect) [1]: statistically significant | Morphology of the epidermis (tolerance of the skin) [2]: preservation of the morphology of the epidermis

O=C(O)CCCCCCCc1cccc(O)c1C(=O)O [Compound B]
Score (mean ± sd, n = 6), decrease in the cohesion of the stratum corneum [1]: 1.75 ± 0.2 | Appearance of the stratum corneum compared with control skin [1]: decrease in the cohesion of the stratum corneum | Decrease in the cohesion of the stratum corneum with respect to the control skin (desquamating effect) [1]: statistically significant | Morphology of the epidermis (tolerance of the skin) [2]: preservation of the morphology of the epidermis
